Experimental findings from ChEMBL document CHEMBL4699500, “Synthesis of metronidazole based thiazolidinone analogs as promising antiamoebic agents” (Bioorg Med Chem Lett, 2020) are described below.

Series [1] relates to Entamoeba histolytica. As to the kind of experiment: Antimicrobial activity against Entamoeba histolytica HM1:MMS assessed as reduction in amoeba growth incubated for 72 hrs by microscopy analysis. Type of series: functional, organism-based.
The test system of series [2] is HEK293. As to the kind of experiment: Cytotoxicity against human HEK293 cells assessed as reduction in cell viability at 100 uM incubated for 48 hrs by MTT assay. Type of series: cell-based. Conditions: hek293, 48 h.
Series [3] deals with HEK293. As to the kind of experiment: Cytotoxicity against human HEK293 cells assessed as reduction in cell viability at 2.5 to 50 uM incubated for 48 hrs by MTT assay. The note with it: hek293, 48 h, dose 2.5-50 µM. Type of series: cell-based. (In general: Tetrazolium dyes change colour on reduction, which living cells bring about.)

With `Cc1ncc([N+](=O)[O-])n1CCOc1ccc(/C=C2\S/C(=N\c3ccccc3)N(Cc3ccccc3Cl)C2=O)cc1`, the concentration for half-maximal inhibition (IC50) in series [1] came to 2.32 µM.

For `Cc1ncc([N+](=O)[O-])n1CCOc1ccc(/C=C2\S/C(=N\c3ccccc3)N(Cc3ccncc3)C2=O)cc1`, the IC50 in series [1] amounted to 0.37 µM. For the same compound, the Activity entry in series [2] and in series [3] was “Non-Toxic” each time.

Regarding `Cc1ncc([N+](=O)[O-])n1CCOc1ccc(/C=C2\S/C(=N\c3ccccc3)N(CC3CCCO3)C2=O)cc1` (stereo not drawn), the half-maximal inhibitory concentration (IC50) in series [1] is 3.1 µM.

For the compound `Cc1ncc([N+](=O)[O-])n1CCOc1ccc(/C=C2\S/C(=N\c3ccccc3)N(Cc3ccco3)C2=O)cc1`, in series [1], the IC50 was 0.64 µM. Besides, in series [3], the Activity entry was “Non-Toxic”.

Regarding `COc1ccc(CN2C(=O)/C(=C/c3ccc(OCCn4c([N+](=O)[O-])cnc4C)cc3)S/C2=N\c2ccccc2)cc1OC`, the IC50 in series [1] is 1.05 µM. Also, the Activity result in series [3] was “Non-Toxic”.

For the compound `CCCN1C(=O)/C(=C/c2ccc(OCCn3c([N+](=O)[O-])cnc3C)cc2)S/C1=N\c1ccccc1`, the IC50 in series [1] was 3.62 µM.

For the compound `Cc1ncc([N+](=O)[O-])n1CCOc1ccc(/C=C2\S/C(=N\c3ccccc3)N(Cc3ccc(Cl)cc3Cl)C2=O)cc1`, the concentration for half-maximal inhibition (IC50) in series [1] was found to be 2.19 µM.

As to `Cc1ncc([N+](=O)[O-])n1CCOc1ccc(/C=C2\S/C(=N\c3ccccc3)N(CCO)C2=O)cc1`, in series [1], the 50% inhibitory concentration (IC50) was 0.18 µM. Also, the Activity entry in series [3] is on record as “Non-Toxic”.

Take `Cc1ncc([N+](=O)[O-])n1CCOc1ccc(/C=C2\S/C(=N\c3ccccc3)N(CC(C)C)C2=O)cc1`: the IC50 in series [1] was determined as 3.95 µM.

Take `Cc1ncc([N+](=O)[O-])n1CCOc1ccc(/C=C2\S/C(=N\c3ccccc3)N(Cc3ccc(F)cc3)C2=O)cc1`: the half-maximal inhibitory concentration (IC50) in series [1] was found to be 2.84 µM.

Turning to `CCCCN1C(=O)/C(=C/c2ccc(OCCn3c([N+](=O)[O-])cnc3C)cc2)S/C1=N\c1ccccc1`, the half-maximal inhibitory concentration (IC50) in series [1] amounted to 4.97 µM.

Turning to `Cc1ncc([N+](=O)[O-])n1CCOc1ccc(/C=C2\S/C(=N\c3ccccc3)N(Cc3ccccc3)C2=O)cc1`, the IC50 in series [1] was 1.65 µM. The Activity result in series [2] and in series [3] was “Non-Toxic” throughout.

For `Cc1ncc([N+](=O)[O-])n1CCOc1ccc(/C=C2\S/C(=N\c3ccccc3)N(Cc3cccs3)C2=O)cc1`, in series [1], the IC50 was found to be 1.63 µM. Also, the Activity result in series [2] and in series [3] was “Non-Toxic” throughout.

Turning to `Cc1ncc([N+](=O)[O-])n1CCO` [METRONIDAZOLE], the Activity entry in series [3] was “Non-Toxic”.

Broadly, the IC50 is the concentration that gives 50% inhibition.
